Test results: ChEMBL document CHEMBL1137237, “Identification of isothiazole-4-carboxamidines derivatives as a novel class of allosteric MEK1 inhibitors” (Bioorg Med Chem Lett, 2006)

Assays:
[1] = AUC following oral dose; format: ADME, organism-based; settings: rat, plasma
[2] = AUC following intravenous dose; format: ADME, organism-based; settings: rat, plasma
[3] = biological target: T1, Dual specificity mitogen-activated protein kinase kinase 1 (Homo sapiens, UniProt Q02750); test: Inhibition of MEK-1 activity
[4] = biological target: Ribosomal protein S6 kinase (P70S6K) (Homo sapiens, UniProt P23443+Q9UBS0); test: Inhibition of p70 S6 kinase; format: protein-complex assay
[5] = biological target: T2, Receptor-type tyrosine-protein kinase FLT3 (Homo sapiens, UniProt P36888); test: Inhibition of Flt-3
T2 sequence (P36888 whole entry): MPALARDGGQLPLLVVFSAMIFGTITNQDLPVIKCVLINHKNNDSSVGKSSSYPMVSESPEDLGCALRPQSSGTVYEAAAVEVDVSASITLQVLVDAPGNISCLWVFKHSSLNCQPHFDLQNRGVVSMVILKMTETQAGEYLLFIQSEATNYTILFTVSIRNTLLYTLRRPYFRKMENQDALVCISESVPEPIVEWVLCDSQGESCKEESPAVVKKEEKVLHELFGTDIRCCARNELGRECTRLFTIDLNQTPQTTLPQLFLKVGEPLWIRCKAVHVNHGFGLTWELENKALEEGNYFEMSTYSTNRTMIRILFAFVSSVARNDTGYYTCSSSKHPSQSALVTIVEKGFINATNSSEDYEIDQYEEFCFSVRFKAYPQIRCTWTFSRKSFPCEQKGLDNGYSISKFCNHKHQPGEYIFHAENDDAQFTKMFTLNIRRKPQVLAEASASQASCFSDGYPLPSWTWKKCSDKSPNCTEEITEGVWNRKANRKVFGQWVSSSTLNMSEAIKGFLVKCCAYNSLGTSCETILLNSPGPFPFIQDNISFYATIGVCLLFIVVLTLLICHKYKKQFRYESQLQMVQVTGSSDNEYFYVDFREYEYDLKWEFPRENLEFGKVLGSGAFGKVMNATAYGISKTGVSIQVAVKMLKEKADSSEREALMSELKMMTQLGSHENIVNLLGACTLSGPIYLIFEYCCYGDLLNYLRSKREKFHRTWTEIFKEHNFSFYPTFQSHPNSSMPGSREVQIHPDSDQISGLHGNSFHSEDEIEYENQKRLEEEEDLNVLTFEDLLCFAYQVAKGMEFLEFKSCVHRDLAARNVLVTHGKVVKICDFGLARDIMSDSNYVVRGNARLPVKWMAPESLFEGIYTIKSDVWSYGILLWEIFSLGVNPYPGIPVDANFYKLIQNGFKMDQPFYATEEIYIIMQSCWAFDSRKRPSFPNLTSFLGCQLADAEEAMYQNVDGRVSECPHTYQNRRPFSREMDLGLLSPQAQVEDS

[6] = biological target: T1, Dual specificity mitogen-activated protein kinase kinase 1; test: Inhibition of MEK-1
[7] = biological target: T1, Dual specificity mitogen-activated protein kinase kinase 1; test: Inhibitory activity against MEK-1; format: functional
Aurora kinase A = biological target: T3, Aurora kinase A (Homo sapiens, UniProt O14965); test: Inhibition of Aurora
T3 sequence (O14965 whole entry): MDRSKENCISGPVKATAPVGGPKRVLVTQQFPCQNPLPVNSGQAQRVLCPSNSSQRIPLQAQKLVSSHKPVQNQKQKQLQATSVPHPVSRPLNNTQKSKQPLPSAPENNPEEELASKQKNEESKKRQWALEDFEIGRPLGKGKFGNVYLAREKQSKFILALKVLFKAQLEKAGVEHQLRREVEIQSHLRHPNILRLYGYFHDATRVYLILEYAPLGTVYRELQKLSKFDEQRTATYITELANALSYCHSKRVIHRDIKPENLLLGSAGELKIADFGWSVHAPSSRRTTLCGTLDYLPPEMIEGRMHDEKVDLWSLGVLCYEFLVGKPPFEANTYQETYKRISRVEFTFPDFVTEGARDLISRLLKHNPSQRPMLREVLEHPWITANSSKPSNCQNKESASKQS

[8] = biological target: Serine/threonine-protein kinase Chk2 (Homo sapiens, UniProt O96017); test: Inhibition of CHK2
[9] = biological target: T4, Tyrosine-protein kinase receptor UFO (Homo sapiens, UniProt P30530); test: Inhibition of Axl
T4 sequence (P30530 whole entry): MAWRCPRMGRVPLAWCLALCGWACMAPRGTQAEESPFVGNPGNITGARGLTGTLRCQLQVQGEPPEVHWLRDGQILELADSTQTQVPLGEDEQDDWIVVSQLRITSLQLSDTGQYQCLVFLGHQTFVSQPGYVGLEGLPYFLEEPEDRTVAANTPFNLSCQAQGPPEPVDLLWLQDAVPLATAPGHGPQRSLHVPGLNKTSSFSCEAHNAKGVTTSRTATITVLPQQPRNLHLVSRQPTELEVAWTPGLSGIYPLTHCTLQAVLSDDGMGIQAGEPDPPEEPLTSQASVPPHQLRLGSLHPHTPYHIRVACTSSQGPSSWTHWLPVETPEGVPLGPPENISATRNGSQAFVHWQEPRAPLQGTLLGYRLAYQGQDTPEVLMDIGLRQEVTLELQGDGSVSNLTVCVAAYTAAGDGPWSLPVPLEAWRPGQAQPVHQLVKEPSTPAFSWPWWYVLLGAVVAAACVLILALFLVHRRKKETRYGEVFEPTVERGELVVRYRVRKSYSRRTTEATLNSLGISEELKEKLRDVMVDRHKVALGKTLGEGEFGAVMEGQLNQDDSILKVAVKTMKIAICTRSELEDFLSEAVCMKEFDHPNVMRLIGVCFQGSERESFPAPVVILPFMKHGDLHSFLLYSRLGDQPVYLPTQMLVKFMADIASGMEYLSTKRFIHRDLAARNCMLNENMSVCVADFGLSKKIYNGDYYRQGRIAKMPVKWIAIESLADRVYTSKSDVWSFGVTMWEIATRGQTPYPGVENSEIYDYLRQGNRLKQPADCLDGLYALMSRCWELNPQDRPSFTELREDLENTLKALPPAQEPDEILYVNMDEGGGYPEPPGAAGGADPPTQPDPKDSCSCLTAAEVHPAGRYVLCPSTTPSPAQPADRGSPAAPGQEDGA

T1 sequence (Q02750 whole entry): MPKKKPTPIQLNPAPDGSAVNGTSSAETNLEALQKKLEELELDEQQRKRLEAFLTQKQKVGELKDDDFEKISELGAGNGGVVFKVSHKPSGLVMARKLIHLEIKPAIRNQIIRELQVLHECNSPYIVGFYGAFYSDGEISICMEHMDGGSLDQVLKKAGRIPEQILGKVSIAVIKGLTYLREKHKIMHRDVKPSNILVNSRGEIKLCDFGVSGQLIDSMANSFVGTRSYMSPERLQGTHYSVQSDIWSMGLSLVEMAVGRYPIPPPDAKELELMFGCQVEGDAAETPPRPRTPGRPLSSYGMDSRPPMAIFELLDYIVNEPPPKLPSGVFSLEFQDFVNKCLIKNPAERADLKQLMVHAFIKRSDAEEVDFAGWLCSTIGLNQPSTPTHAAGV
Sequence of Serine/threonine-protein kinase Chk2 (O96017 whole entry): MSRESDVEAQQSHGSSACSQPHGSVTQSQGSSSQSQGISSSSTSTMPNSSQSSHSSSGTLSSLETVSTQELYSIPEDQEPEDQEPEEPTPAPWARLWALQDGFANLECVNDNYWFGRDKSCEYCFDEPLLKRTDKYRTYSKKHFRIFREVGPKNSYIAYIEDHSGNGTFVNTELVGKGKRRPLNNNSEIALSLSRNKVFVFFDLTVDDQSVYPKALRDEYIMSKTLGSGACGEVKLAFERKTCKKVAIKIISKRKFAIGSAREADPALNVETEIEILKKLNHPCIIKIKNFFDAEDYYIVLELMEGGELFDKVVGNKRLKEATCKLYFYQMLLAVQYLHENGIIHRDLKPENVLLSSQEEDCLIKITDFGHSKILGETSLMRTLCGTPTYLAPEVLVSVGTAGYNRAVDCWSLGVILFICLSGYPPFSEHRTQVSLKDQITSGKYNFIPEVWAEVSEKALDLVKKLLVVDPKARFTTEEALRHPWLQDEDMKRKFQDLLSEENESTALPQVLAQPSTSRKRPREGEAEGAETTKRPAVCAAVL
Sequence of Ribosomal protein S6 kinase (P70S6K) (Q9UBS0 whole entry): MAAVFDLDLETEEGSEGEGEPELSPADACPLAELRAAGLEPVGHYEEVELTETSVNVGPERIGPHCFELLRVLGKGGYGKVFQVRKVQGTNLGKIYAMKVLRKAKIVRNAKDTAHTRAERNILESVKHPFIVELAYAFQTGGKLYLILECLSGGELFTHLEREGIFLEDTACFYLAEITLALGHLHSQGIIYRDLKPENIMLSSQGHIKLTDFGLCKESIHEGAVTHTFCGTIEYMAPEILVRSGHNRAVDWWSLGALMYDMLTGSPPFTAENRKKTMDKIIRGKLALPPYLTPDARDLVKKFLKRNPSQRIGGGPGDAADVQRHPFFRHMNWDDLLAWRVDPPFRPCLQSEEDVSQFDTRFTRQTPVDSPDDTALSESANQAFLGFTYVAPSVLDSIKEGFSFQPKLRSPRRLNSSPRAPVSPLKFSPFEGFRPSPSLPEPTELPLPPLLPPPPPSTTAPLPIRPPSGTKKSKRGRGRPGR
Sequence of Ribosomal protein S6 kinase (P70S6K) (P23443 whole entry): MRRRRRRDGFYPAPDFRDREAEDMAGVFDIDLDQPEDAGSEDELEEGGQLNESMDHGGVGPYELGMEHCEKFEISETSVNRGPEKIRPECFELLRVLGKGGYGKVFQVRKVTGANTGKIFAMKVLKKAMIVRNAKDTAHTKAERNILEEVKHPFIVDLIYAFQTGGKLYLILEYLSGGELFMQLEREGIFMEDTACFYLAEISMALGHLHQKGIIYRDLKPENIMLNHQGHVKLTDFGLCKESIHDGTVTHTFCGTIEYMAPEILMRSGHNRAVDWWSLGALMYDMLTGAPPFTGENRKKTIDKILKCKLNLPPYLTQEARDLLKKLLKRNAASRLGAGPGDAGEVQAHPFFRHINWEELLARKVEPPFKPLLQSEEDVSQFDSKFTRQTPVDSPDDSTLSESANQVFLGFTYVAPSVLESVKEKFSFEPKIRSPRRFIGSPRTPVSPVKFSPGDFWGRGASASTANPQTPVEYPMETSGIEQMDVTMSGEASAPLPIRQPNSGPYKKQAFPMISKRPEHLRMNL

Row | SMILES | AUC [1] [ng·h/mL] | also measured
1 | CC(CO)/N=C(\N)c1c(O)nsc1Nc1ccc(Oc2cccc(Cl)c2Cl)cc1 (stereo not given) | 5260 | –
2 | CC(CO)NC(=N)c1c(O)nsc1Nc1ccc(Oc2cc(F)ccc2Cl)cc1 (stereo not given) | 900 | –
3 | N=C(NCCN1CCOCC1)c1c(O)nsc1Nc1ccc(Oc2cc(Cl)ccc2Cl)cc1 | 617 | –
4 | CC(CO)NC(=N)c1c(O)nsc1Nc1ccc(Oc2cccc(F)c2F)cc1 (stereo not given) | 9430 | –
5 | CC(CO)NC(=N)c1c(O)nsc1Nc1ccc(Oc2cccc(Cl)c2Cl)c(Cl)c1 (stereo not given) | 4280 | –
6 | NC(=NCCCN1CCOCC1)c1c(Nc2ccc(Oc3cc(Cl)ccc3Cl)cc2)s[nH]c1=O | 6860 | –
7 | CC(CO)NC(=N)c1c(O)nsc1Nc1ccc(Oc2cc(Cl)cc(Cl)c2)cc1 (stereo not given) | 11700 | –
8 | CC(CO)/N=C(\N)c1c(O)nsc1Nc1ccc(Oc2ccc(F)cc2F)cc1 (stereo not given) | 16500 | –
9 | CC(CO)NC(=N)c1c(O)nsc1Nc1ccc(Oc2ccc(Cl)cc2Cl)cc1 (stereo not given) | 26200 | –
10 | N/C(=N\N1CCOCC1)c1c(O)nsc1Nc1ccc(Oc2cc(Cl)ccc2Cl)cc1 | 2880 | –
11 | CN1CCN(CC/N=C(\N)c2c(O)nsc2Nc2ccc(Oc3cc(Cl)ccc3Cl)cc2)CC1 | 262 | –
12 | CC(CO)/N=C(\N)c1c(O)nsc1Nc1ccc(Oc2cc(F)cc(F)c2)cc1 (stereo not given) | 5140 | –
13 | CC(CO)/N=C(\N)c1c(O)nsc1Nc1ccc(Oc2ccc(F)cc2Cl)cc1 (stereo not given) | 6260 | –
14 | CC(CO)/N=C(\N)c1c(O)nsc1Nc1ccc(Oc2cc(F)cc(F)c2Cl)cc1 (stereo not given) | 20300 | –
15 | CC(CO)N=C(N)c1c(Nc2ccc(Oc3cc(Cl)ccc3Cl)cc2)s[nH]c1=O (stereo not given) | 47400 | –
16 | CC(C)C(CO)N=C(N)c1c(Nc2ccc(Oc3cc(Cl)ccc3Cl)cc2)s[nH]c1=O (stereo not given) | 22400 | –
17 | NC(=NC(CO)CO)c1c(Nc2ccc(Oc3cc(Cl)ccc3Cl)cc2)s[nH]c1=O | 5100 | –
18 | N=C(NCC1CCCO1)c1c(O)nsc1Nc1ccc(Oc2cc(Cl)ccc2Cl)cc1 (stereo not given) | 425 | –
19 | N/C(=N\CCN1CCNC(=O)C1)c1c(O)nsc1Nc1ccc(Oc2cc(Cl)ccc2Cl)cc1 | 87 | –
20 | NC(=NCCO)c1c(Nc2ccc(Oc3cc(Cl)ccc3Cl)cc2)s[nH]c1=O | 14600 | –
21 | CC(CO)N=C(N)c1c(Nc2ccc(S(=O)(=O)c3ccccc3)cc2)s[nH]c1=O (stereo not given) | 4250 | AUC [2]: 8540 ng·h/mL
22 | CC(CO)NC(=N)c1c(O)nsc1Nc1ccc(Oc2cccc(C(F)(F)F)c2Cl)c(Cl)c1 (stereo not given) | 5710 | –
23 | CC(CO)/N=C(\N)c1c(O)nsc1Nc1ccc(C(=O)c2ccccc2)cc1 (stereo not given) | 60 | AUC [2]: 2900 ng·h/mL
24 | CC(CO)/N=C(\N)c1c(O)nsc1Nc1ccc(Cc2ccccc2)cc1 (stereo not given) | 220 | AUC [2]: 7250 ng·h/mL

Row | SMILES | AUC [1] [ng·h/mL] | also measured
25 | CC(CO)N=C(N)c1c(Nc2ccc(Oc3cc(C(F)(F)F)ccc3Cl)cc2)s[nH]c1=O (stereo not given) | 21900 | –
26 | CC(CO)N=C(N)c1c(Nc2ccc(Oc3cccc(C(F)(F)F)c3Cl)c(F)c2)s[nH]c1=O (stereo not given) | 4500 | –
27 | CC(CO)N=C(N)c1c(Nc2ccc(Oc3cc(C(F)(F)F)ccc3F)cc2)s[nH]c1=O (stereo not given) | 31300 | –
28 | CC(CO)N=C(N)c1c(Nc2ccc(Oc3cccc(C(F)(F)F)c3F)cc2)s[nH]c1=O (stereo not given) | 13000 | –
29 | CC(CO)NC(=N)c1c(O)nsc1Nc1ccc(Oc2cccc(C(F)(F)F)c2Cl)cc1 (stereo not given) | 20400 | –
30 | CC(CO)NC(=N)c1c(O)nsc1Nc1ccc(Nc2ccccc2)cc1 (stereo not given) | 1240 | IC50 [3]: 0.24 µM; IC50 [4]: 1 µM; AUC [2]: 859 ng·h/mL; IC50 [5]: 0.448 µM; IC50 [6]: 0.266 µM; EC50 [7]: 0.045 µM; IC50 (Aurora kinase A): 0.265 µM; IC50 [8]: 0.013 µM; IC50 [9]: 0.389 µM
31 | N=C(NCCC(O)CO)c1c(O)nsc1Nc1ccc(Oc2cc(Cl)ccc2Cl)cc1 (stereo not given) | 2020 | –
32 | CC(CO)NC(=N)c1c(O)nsc1Nc1ccc(Oc2cccc(C(F)(F)F)c2)cc1 (stereo not given) | 28700 | –
33 | CN1CCN(N=C(N)c2c(Nc3ccc(Oc4cc(Cl)ccc4Cl)cc3)s[nH]c2=O)CC1 | 1980 | –
34 | NC(=NCC(O)CO)c1c(Nc2ccc(Oc3cc(Cl)ccc3Cl)cc2)s[nH]c1=O (stereo not given) | 12500 | –
35 | CC(CO)N=C(N)c1c(Nc2ccc(Oc3ccc(F)cc3Cl)c(Cl)c2)s[nH]c1=O (stereo not given) | 5690 | –
36 | CCC(CO)/N=C(\N)c1c(O)nsc1Nc1ccc(Oc2cc(Cl)ccc2Cl)cc1 (stereo not given) | 14600 | –
37 | CC(CO)/N=C(\N)c1c(O)nsc1Nc1ccc(Oc2cccc(Cl)c2F)cc1 (stereo not given) | 12600 | –
38 | CC(CO)/N=C(\N)c1c(O)nsc1Nc1ccc(Oc2cc(Cl)ccc2Cl)c(F)c1 (stereo not given) | 22200 | –
39 | CC(CO)/N=C(\N)c1c(O)nsc1Nc1ccc(C(C)(C)c2ccccc2)cc1 (stereo not given) | 2350 | AUC [2]: 9250 ng·h/mL
40 | CC(O)C/N=C(\N)c1c(O)nsc1Nc1ccc(Oc2cc(Cl)ccc2Cl)cc1 (stereo not given) | 23900 | –
41 | CC(CO)N=C(N)c1c(Nc2ccc(Sc3ccccc3)cc2)s[nH]c1=O (stereo not given) | 265 | AUC [2]: 6900 ng·h/mL
42 | CN1CCN(CCC/N=C(\N)c2c(O)nsc2Nc2ccc(Oc3cc(Cl)ccc3Cl)cc2)CC1 | 2420 | –
43 | CC(CO)/N=C(\N)c1c(O)nsc1Nc1ccc(Oc2cc(F)cc(F)c2Cl)c(F)c1 (stereo not given) | 14900 | –
44 | CC(CO)N=C(N)c1c(Nc2ccc(Oc3cccc(N(C)C)c3)cc2)s[nH]c1=O (stereo not given) | 900 | –
45 | Cc1cc(Oc2ccc(F)cc2Cl)ccc1Nc1snc(O)c1/C(N)=N/C(C)CO (stereo not given) | 12700 | –
46 | CC(CO)NC(=N)c1c(O)nsc1Nc1ccc(Oc2cc(F)cc(C(F)(F)F)c2)cc1 (stereo not given) | 15400 | –
47 | CC(CO)/N=C(\N)c1c(O)nsc1Nc1ccc(Oc2ccccc2)cc1 (stereo not given) | 1140 | IC50 [3]: 0.033 µM; IC50 [4]: 2.62 µM; AUC [2]: 8320 ng·h/mL; IC50 [5]: 0.795 µM; IC50 [6]: 0.026 µM; EC50 [7]: 0.042 µM; IC50 (Aurora kinase A): 0.26 µM; IC50 [8]: 0.142 µM; IC50 [9]: 0.455 µM
